In article PMC7259638, “Characterization of the intestinal absorption of morroniside from Cornus officinalis Sieb. et Zucc via a Caco-2 cell monolayer model” (PLoS ONE, 2020):
Where two headings read alike, the source gives them in different places.

Columns and labels:
[1] = Transport of morroniside across Caco-2 cell monolayers (bidirectional, concentration and pH); type: in vitro ADME, human; conditions: human
Protocol: (§1) An initial stock solution of morroniside in methanol was prepared. The stock solution was then diluted with HBSS (pH = 7.4) and the final concentration of methanol in HBSS remained at 0.5%. […] Caco-2 cells were seeded at a density of 5 × 10^4 cells/cm^2 in a 12-well plate. The transepithelial electrical resistance (TEER) value was measured with a Millipore ERS voltameter (Burlington, MA, USA) in order to evaluate and determine monolayer integrity. The monolayers were ready for experiments 19 to 22 days after seeding.
(§2) During incubation, the culture medium was refreshed every other day. The culture medium was discarded, and 500 μL of HBSS was added to each well and incubated for 20 min at 37 °C. Afterward, each well was rinsed two times with HBSS at 37 °C. Three concentrations of morroniside (5, 25 and 100 μM) were added to either the apical (AP, 0.5 mL) or basolateral side (BL, 1.5 mL), wheras the receiving chamber contained the corresponding volume of blank HBSS medium (pH = 7.4). Incubation was performed at 37 °C for 180 min, with shaking at 50 rpm. To assess drug transport from the AP to BL side, after incubation for 5, 15, 30, 45, 60, 90, 120 or 180 min, 50 μL of the solution from the BL or AP side was collected, and replaced with an equal volume of HBSS. To study the effect of pH on morroniside (5, 25 and 100 μM) transport, the experiments were performed in HBSS, which was adjusted to pH 6.0 or pH 7.4 on the AP side depending on the experiment, and to pH 7.4 on the BL side at 37 °C.
(§3) UPLC-MS/MS data acquisition was performed using Analyst 1.5.2 and MultiQuant 2.1.1 software (Applied Biosystems). All data are shown as the mean ± standard deviation, n = 3. The data were analyzed using SPSS 20.0. In the Caco-2 cell model, the rate of transport was obtained from the amount transported versus the time curve using linear regression. The permeability coefficient of each compound was calculated using the following equation: Papp = (dQ/dt)/(A·C0).
(§4) where, dQ/dt is the rate of drug transport, C0 is the initial concentration of the compound in the donor chamber and A represents the surface area of the cell monolayer. The efflux ratio P was determined by calculating the ratio of Papp in the secretory (BA) direction divided by that in the absorptive (AB) direction, according to the following equation: P=PappBA/PappAB

Caco-2 cell monolayers = experiment: as above; type: in vitro ADME, human; conditions: for PappAB AP-BL: AP to BL; for PappAB AP-BL / PappAB BL-AP: pH 7.4; for PappAB AP-BL / PappAB BL-AP / PappAB: 37 °C, n = 3; for PappAB BL-AP: BL to AP
Protocol: as §1, §2, §3, §4

Caco-2 cells = experiment: MTT cytotoxicity assay; type: cell-based, human; conditions: for Survival Rates (%, mean): Caco-2 cells, five replicates
Protocol: The conditions for Caco-2 cell culture have been described previously. Briefly, Caco-2 cells were cultured in a humidified atmosphere of 5% CO2 and 95% air at 37 °C. The culture medium (DMEM) was supplemented with 10% (v/v) fetal bovine serum, 1% nonessential amino acids, 1% penicillin, and streptomycin. The medium was changed every 2–3 days. When the cell monolayer reached 80–90% confluence, the cells were detached with a solution of trypsin (0.5 mg/mL) and EDTA (0.2 mg/mL) and reseeded at a density of 5×10^4 cells/cm^2.
For the cytotoxicity assay, the cells were incubated in 96-well plates for 24 h. Morroniside dissolved in methanol was diluted with DMEM to terminal concentrations that ranged from 0.1 μM to 200 μM, or CO at 0.63 mg/mL (containing 25 μM morroniside). A negative control group was obtained by the addition of DMEM with methanol at 0.5%(v/v). The cell culture medium treated group was treated only with DMEM. MTT solution was prepared to 1 mg/mL in phosphate-buffered saline and filtered through a 0.2 μm filter. Then, 20 μL of MTT was added into each well. Cells were incubated for 4 h at 37 °C with 5% CO2, 95% air and 100% humidity. After 4 h, the MTT solution was removed and replaced with 150 μL of DMSO. The plate was further incubated for 5 min at room temperature (20 °C), and the optical density of the wells was measured using a plate reader at a wavelength of 490 nm.

[2] = set-up: method as in PMID 17596900, doi:10.1177/1934578X19856526; conditions: rats; oral vs intravenous; cited from earlier work
[3] = system: Na+/K+ pump (Na/K-ATPase); experiment: Effects of influx/efflux transporter inhibitors and CO on morroniside transport in Caco-2 cell monolayers; type: in vitro ADME, human; conditions: human, Caco-2, pH 7.4, with sodium vanadate 50 μM, with 50 μM sodium vanadate (Na+/K+ pump); read-out: P (efflux ratio PappBA/PappAB)
Protocol: as §1, §2
(§5) Efflux and influx transporters were investigated for their effects on the transport flux of morroniside. Several ATP-binding cassette transporter inhibitors, including one p-glycoprotein (P-gp) inhibitor (100μM verapamil); one multidrug resistance- related protein (MRP) inhibitor (100 μM, MK571), one multidrug resistance- related protein 3 (MRP3, the main BL MRP) inhibitor ([…]) and one multidrug resistance- related protein 2 (MRP2, the main AP MRP) inhibitor (200μM indomethacin); and one breast cancer resistance protein (BCRP) inhibitor (25μM apigenin) were used to determine the transporters involved in the efflux transport of morroniside. The inhibition of the influx transport of morroniside transport across the Caco-2 cell monolayer was investigated by the addition of 50 μM sodium vanadate and cimetidine to evaluate the selectivity of Na/K-ATPase. The pH and temperature conditions of this assay were 7.4 and 37 °C, respectively.
as §3, §4

MRP = experiment: as above; type: in vitro ADME, human; conditions: human, Caco-2, pH 7.4, with MK571 100 μM, 25 μM morroniside
Protocol: as §1, §2, §5, §3, §4

`COC(=O)C1=CO[C@@H](O[C@@H]2O[C@H](CO)[C@@H](O)[C@H](O)[C@H]2O)[C@@H]2[C@H](C)O[C@@H](O)C[C@H]12` [morroniside, Morroniside] showed a Papp A→B at 180 min, 5 μM ([1]; Caco-2, AP side pH 6.0, BL side pH 7.4, 5μM morroniside, 37 °C, n = 3, read-out: PappAB) of 0.55 ± 0.07 ×10⁻⁶ cm/s, a Papp A→B at 180 min, 100 μM ([1]; Caco-2, AP side pH 6.0, BL side pH 7.4, 100μM morroniside, 37 °C, n = 3, read-out: PappAB) of 0.62 ± 0.1 ×10⁻⁶ cm/s and a Papp A→B at 180 min, 5 μM ([1]; Caco-2, pH 7.4, 5 μM morroniside, AP to BL, over 3 h, read-out: Papp (AP to BL)) of 2.66 ×10⁻⁶ cm/s. The Papp A→B at 180 min, 25 μM ([1]; Caco-2, pH 7.4, 25 μM morroniside, AP to BL, pH 7.4, 37 °C, n = 3, read-out: PappAB AP-BL) was 1.83 ± 0.65 ×10⁻⁶ cm/s, the Papp A→B at 180 min, 100 μM ([1]; Caco-2, pH 7.4, 100 μM morroniside, AP to BL, over 3 h, read-out: Papp (AP to BL)) was 1.59 ×10⁻⁶ cm/s and the Papp A→B at 180 min, 5 μM ([1]; Caco-2, pH 7.4, AP side pH 7.4, 5μM morroniside, 37 °C, n = 3, read-out: PappAB) was 1.88 ± 0.49 ×10⁻⁶ cm/s. The Papp A→B at 180 min, 25 μM ([1]; Caco-2, pH 7.4, AP side pH 7.4, 25μM morroniside, 37 °C, n = 3, read-out: PappAB) was 1.92 ± 0.52 ×10⁻⁶ cm/s, the Papp A→B at 180 min ([1]; Caco-2, pH 7.4, range over 5, 25 and 100 μM, AP-to-BL, read-out: apparent permeability coefficient (Papp) AP-to-BL) was 1.59 to 2.66 ×10⁻⁶ cm/s and the Papp B→A at 180 min, 5 μM ([1]; Caco-2, pH 7.4, 5 μM morroniside, BL to AP, over 3 h) was 4.1 ×10⁻⁶ cm/s. It also gave a Papp B→A at 180 min, 100 μM ([1]; Caco-2, pH 7.4, 100 μM morroniside, BL to AP, over 3 h) of 2.67 ×10⁻⁶ cm/s, a Papp B→A at 180 min ([1]; Caco-2, pH 7.4, range over 5, 25 and 100 μM, BL-to-AP, read-out: apparent permeability coefficient (Papp) BL-to-AP) of 2.67 to 4.1 ×10⁻⁶ cm/s and a Papp B→A at 180 min, 25 μM ([1]; Caco-2, 25 μM morroniside, BL to AP, pH 7.4, 37 °C, n = 3, read-out: PappAB BL-AP) of 2.92 ± 0.63 ×10⁻⁶ cm/s. For the same molecule, the “PappAB AP-BL” value (Caco-2 cell monolayers; 5 μM morroniside) was 2.66±0.60 ×10^-6cm/s, the “PappAB BL-AP” value (Caco-2 cell monolayers; 5 μM morroniside) was 4.10±0.86 ×10^-6cm/s and the “PappAB AP-BL” value (Caco-2 cell monolayers; 100 μM morroniside) was 1.59±0.41 ×10^-6cm/s. The “PappAB BL-AP” value (Caco-2 cell monolayers; 100 μM morroniside) was 2.67±0.48 ×10^-6cm/s, the PappAB (Caco-2 cell monolayers; AP side pH 6.0, BL side pH 7.4, 25μM morroniside) was 0.61±0.15 ×10^-6cm/s and the PappAB (Caco-2 cell monolayers; AP side pH 7.4, 100μM morroniside) was 1.86±0.33 ×10^-6cm/s. The “intestinal absorption assessed from Papp level” value (Caco-2 cell monolayers; Papp values at the level of 10^−6, Caco-2 transwell) was “poor intestinal absorption”, the “PappAB at pH 7.4 compared with pH 6.0” value (Caco-2 cell monolayers; three concentrations (5, 25, 100 μM), p<0.05) was “significantly higher” and the “Survival Rates (%, mean)” value (Caco-2 cells; 0.1 μM) was 105.12%. For the same molecule, the “Survival Rates (%, mean)” value (Caco-2 cells; 1 μM) was 108.33%, the “Survival Rates (%, mean)” value (Caco-2 cells; 5 μM) was 101.62% and the “Survival Rates (%, mean)” value (Caco-2 cells; 10 μM) was 102.41%. The “Survival Rates (%, mean)” value (Caco-2 cells; 50 μM) was 95.21%, the “Survival Rates (%, mean)” value (Caco-2 cells; 100 μM) was 91.77% and the “Survival Rates (%, mean)” value (Caco-2 cells; 200 μM) was 90.72%. For the same molecule, the “reduction of viability of Caco-2 cells” value (Caco-2 cells; highest concentration (200 μM)) was 8%, the “cytotoxicity toward Caco-2 cells (in words)” value (Caco-2 cells; morroniside 0.1 to 200 μM) was “nontoxic” and the absolute oral bioavailability [2] was 3.6–7.0%. The efflux ratio at 180 min [3] was 1.65, the efflux ratio at 180 min, 25 μM (MRP; with MK 571 100 μM (MRP inhibitor), read-out: Efflux ratio P) was 0.4 and the Papp A→B at 180 min, 25 μM (MRP; AP to BL, with MK 571 100 μM, read-out: PappAB (mean)) was 7.55 ×10⁻⁶ cm/s. It also gave a Papp B→A at 180 min, 25 μM (MRP; BL to AP, with MK 571 100 μM, read-out: PappBA (mean)) of 3.01 ×10⁻⁶ cm/s.
